{
  "source": "patent US20250082760A1",
  "about": "(priority 2020, published 2025)",
  "key": {"reserpine-treated mice": {"tested_on": "reserpine-treated mice", "assay": "mouse sugar water preference test (reserpine depression model)", "assay_type": "in vivo, Kunming mice", "description": "Experimental drug, clomipramine (CLI), sigma company, batch number: C7291, 10 mg/ml (10% DMSO); reserpine (Res), sigma company, batch number: 83580, 1 mg/ml (10% DMSO);\nSPF adult male Kunming mice, 20-30 g, Laboratory Animal Center of Lanzhou University, animal certificate number: SCXK (Gan) 2018-0002, reared in separate cages, temperature 22±1° C., humidity […], 12 h/12 h light and dark cycle controlled by dynamic light (light-on time 8:000 h, light-off time 20:000 h, light intensity≈100 lux), animals could eat and move freely.\n(§1) Statistical analysis, the experimental data were analyzed by SPSS 19.0 statistical software, and all data were expressed as Means±SEM."}, "[1]": {"tested_on": "reserpine depression model mice", "assay": "forced swimming test in mice (reserpine depression model)", "assay_type": "in vivo, Kunming mice", "description": "Experimental Drug, Animal, Grouping and Administration are Same as Sugar Water Preference Experiment Method.\nPreparation of depression animal models, acute intraperitoneal injection of 6 mg/kg Res can cause a continuous decrease in monoamine neurotransmitters in the brain for 1 week, and depression-like behaviors last for 72 hours, it is often utilized for the preparation of depression models (Huang et al., 2004).\nForced swimming experiment process, the forced swimming experiment is an experiment in which animals are placed in an unavoidable stressful environment to detect the despair state of animal behavior (Porsolt et al., 1978). Male Kunming mice were selected and randomly divided into groups. Conduct in a quiet and enclosed behavioral observation room, with red lights for indoor lighting (25 lux). The experiment is divided into two stages, the first stage: adaptation experiment, 1 day before the test, 9:00-12:00 h, put the animals into the forced swimming test equipment (plexiglass drum: diameter 20 cm, height 25 cm, water depth 12 cm, water temperature 21-25° C., the upper side CCD camera is connected to the computer to record) after 15 minutes of adaptation, take it out, dry the hair with a towel and put it back into the cage. The second stage: testing experiment, animals in each group were put into the forced swimming bucket for 5 minutes at the same time period, and the behavioral activities during the testing period were tracked and recorded by digital cameras and then analyzed. Immobility time: The animal floats on the water surface, with no movement of the limbs or slight movement of the hind limbs to keep the head above the water surface. Evaluate depression like behavior by detecting the despair state of animals based on their immobility time.\nas §1"}, "[2]": {"settings": "Res 6 mg/kg + compound 5 56 mg/kg i.p."}, "[3]": {"settings": "after Res 6 mg/kg i.p., CLI 50, Pro 25, A1P1 24 and 25, compound 5 56 mg/kg i.p."}},
  "note": "Structures can show the parent of a compound that is named as a salt.",
  "data": [
    {"smiles": "CC(C)c1cccc(C(C)C)c1OC(=O)CC1(CN(C)C)CCCCC1", "note": "[Compound 5, 2,6-diisopropylphenyl 2-(1-((dimethylamino)methyl)cyclohexyl)acetate hydrochloride]", "values": [
      {"measurement": "antidepressant effect (sugar water preference test)", "setting": "reserpine-treated mice; [2]", "value": "significant antidepressant effect"},
      {"measurement": "change of preference for sugar water compared with the Res+DMSO group", "setting": "reserpine-treated mice; [3]", "value": "rose significantly"},
      {"measurement": "Sugar water preference (sugar water drinking amount/total drinking amount)", "setting": "reserpine-treated mice; after Res 6 mg/kg i.p., CLI 50, Pro 25, A1P1 24 and 25, compound 5 56 mg/kg i.p., Means±SEM, Res + DMSO 0.642 ± 0.036, DMSO 0.901 ± 0.026", "value": "0.894 ± 0.028"},
      {"measurement": "antidepressant effect (forced swimming test)", "setting": "[1]; [2]", "value": "significant antidepressant effect"},
      {"measurement": "forced immobility time compared with the Res+A1P1 group", "setting": "[1]; [2]", "value": "shortened to a certain extent, but there was no significant difference"},
      {"measurement": "forced immobility time compared with the Res+Pro group", "setting": "[1]; [2]", "value": "shortened and there was a significant difference"},
      {"measurement": "change of forced swimming immobility time compared with the Res+DMSO group", "setting": "[1]; [3]", "value": "slightly shortened"},
      {"measurement": "Forced swimming immobility time", "setting": "[1]; after Res 6 mg/kg i.p., CLI 50, Pro 25, A1P1 24 and 25, compound 5 56 mg/kg i.p., 5 min test, Means±SEM, Res + DMSO 169.82 ± 11.22, DMSO 106.72 ± 16.49", "value": "116.29 ± 22.23", "unit": "s"},
      {"measurement": "logP", "setting": "physchem", "value": 1.37}
    ]}
  ]
}
